Data reported in patent US20100056519A1, “COMPOSITION AND METHOD FOR REDUCING PLATELET ACTIVATION AND FOR THE TREATMENT OF THROMBOTIC EVENTS” (priority 2008, published 2010).

Tests used:
Assay type in all cases: cell-based, human
VTNR (CD51/61) = assay: TRAP-stimulated whole blood flow cytometry, vitronectin receptor; settings: Mean ± SD
Procedure: (§1) The methodology employed was conventional aggregation induced by 5 μM ADP, 1 μg/ml collagen, 10 μM TRAP, whole blood aggregation with 1 μg/ml collagen, Ultegra, and PFA-100 Analyzers, expression of 14 intact, and TRAP-stimulated major receptors by whole blood flow cytometry were utilized to assess platelet activity after preincubation with escalating concentrations of E5555 (20 ng/ml, 50 ng/ml, and 100 ng/ml). The experiments were performed in healthy volunteers, CAD patients treated with ASA, and CAD patients treated with ASA and clopidogrel combination (n=10, for each group).
(§2) An Informed Consent was obtained from all volunteers. Drug users were excluded from data analysis. The study was approved by Quorum Institutional Review Board. All subjects underwent blood sampling after at least 30 minutes of rest and two or more hours of fasting. Blood (28 ml) was drawn between 8 and 10 a.m. in order to avoid any diurnal influence and sampled from an antecubital vein using a 21-gauge butterfly needle containing 3.2% sodium citrate (1:9 volume) after having discarded the first 1.5 ml of free running blood. Four Vacutainer tubes (7.0 ml) were collected for a total of 28 ml of whole blood-citrate mixture from each study participant. Chronologically, blood samples were delivered to the core laboratory facility within 45 minutes after drawing. Then all tubes of blood-citrate mixture were pooled. One portion of pooled blood (5 ml) was kept as an internal control and pretreated with the vehicle. The remaining blood (23 ml) was used for the in vitro exposure to E5555 at concentrations of 20 ng/ml, 50 ng/ml, and 100 ng/ml. […] The platelet aggregation studies, Rapid Analyzers measures, and flow cytometry preparations were initiated within no more than 110 minutes following the blood draw, incubation with the drug, and preparation of the samples.
(§3) Formation of platelet-leukocyte aggregates was assessed by dual labeling with pan-platelet marker (CD151), and then with CD14, the macrophage receptor for endotoxin lipopolysaccharides (PharMingen, and Coulter, San Diego, Calif., USA). The tubes were then covered with aluminum foil and incubated at 37° C. for 40 minutes with gentle rotation. After incubation, samples were immediately analyzed on a Becton Dickinson FACScan flow cytometer. The instrument was set up to measure forward light scatter, and FITC fluorescence. All parameters were collected using four-decade logarithmic amplification. The data was retrieved in list mode files and then analyzed. P selectin was expressed as percent positive cells. Other antigens were expressed as log mean fluorescence intensity.
(§4) For flow cytometry (TRAP-stimulated) all of the above flow cytometry experiments were identically repeated utilizing prestimulation with 10 μmol/L TRAP for 5 minutes at 37° C. To determine statistics, a Paired Sign Test was used to define significance of differences between vehicle and E5555-treated groups. The Mann-Whitney U test was used to analyze nonparametric data. Normally distributed data were expressed as mean±standard error (m±SE), and skewed data as median (range). All P-values were two sided. All analysis was performed using the SPSS v9.0 program (SPSS Inc., Chicago, Ill.).

PMA (CD14 + CD151) = assay: Unstimulated whole blood flow cytometry, platelet-monocyte aggregates; settings: for PMA (CD14 + CD151), Mean Fluorescence Intensity: unstimulated, Mean ± SD
Procedure: as §1, §2, §3

platelets = assay: Whole blood (impedance) aggregation with 1 μg/ml collagen; settings: Mean ± SD
Procedure: as §1, §2
Whole blood aggregation was determined using a Chronolog device 592A. The whole blood-citrate mixture was diluted 1:1 with 0.5 ml phosphate buffered saline and gently swirled. The sample then was allowed to warm to 37° C. for 5 minutes then transferred to the assay well. The electrode was then placed in the cuvette and the sample was stimulated with 1 μg/ml collagen. The change in electrical impedance was digitally recorded. Each whole blood sample was analyzed utilizing 2 different clinical devices: • (1) a Rapid Platelet-Function Assay (Ultegra®) (Accumetrics, Inc., San Diego, Calif.), which is a rapid platelet-function assay aspirin cartridge test with TRAP used as agonist. Polystyrene beads coated with fibrinogen are placed in a cartridge along with the peptide that activates thrombin receptor. Anticoagulated whole blood was added to the cartridge, and agglutination between platelets and coated beads was recorded. The data mirrors turbidimetric platelet aggregation and presumably reflects platelet glycoprotein IIb/IIIa blockade. Ultegra RPFA-TRAP Assay results were reported as Platelet Activation Units (PAU); and • (2) Platelet-Function Analyzer PFA-100 ™ (Dade Behring, Deerfield Ill.), which is a high shear-inducing analyzer that simulates primary hemostasis after injury to a small vessel under flow conditions. The device provides a constant negative pressure that aspirates whole blood, which comes into contact with the collagen, coated membrane and then passes through the aperture. The time required to obtain occlusion of the aperture is digitally recorded. The time to aperture occlusion (the closure time) is recorded in seconds and is inversely related to the degree of shear-induced platelet activation. We used ADP/Collagen cartridges in the index study. Both PFA-100 and Ultegra assays were performed in duplicate. An electronic quality control test was performed on each instrument daily prior to performing any patient samples.

LAMP-1 (CD107a) = assay: Unstimulated whole blood flow cytometry, LAMP-1; settings: for LAMP-1 (CD107a), Mean Fluorescence Intensity: unstimulated, Mean ± SD
Procedure: as §1, §2, §3

GPIIb antigen (CD41) = assay: TRAP-stimulated whole blood flow cytometry, GPIIb antigen; settings: Mean ± SD
Procedure: as §1, §2, §3, §4

[1] = E5555 20 ng/ml, Patients (ASA + C)
[2] = E5555 50 ng/ml, Patients (ASA + C)
[3] = E5555 100 ng/ml, Patients (ASA + C)
[4] = E5555 100 ng/ml, Patients (ASA)
[5] = overall summary, stimulation not stated

## Br.CCOc1cc2c(c(F)c1OCC)C(=N)N(CC(=O)c1cc(N3CCOCC3)c(OC)c(C(C)(C)C)c1)C2 [E5555, 1-(3-tert-butyl-4-methoxy-5-morpholinophenyl)-2-(5,6-diethoxy-7-fluoro-1-imino-1,3-dihydro-2H-isoindol-2-yl)ethanone hydrobromide]
VTNR (CD51/61); [1]
  VTNR (CD51/61), Mean Fluorescence Intensity: 10.2 ± 1.5 MFI
VTNR (CD51/61); E5555 20 ng/ml, Patients (ASA)
  VTNR (CD51/61), Mean Fluorescence Intensity: 10.8 ± 2.1 MFI
VTNR (CD51/61); E5555 20 ng/ml, Volunteers
  VTNR (CD51/61), Mean Fluorescence Intensity: 10.4 ± 1.3 MFI
VTNR (CD51/61); [2]
  VTNR (CD51/61), Mean Fluorescence Intensity: 10.9 ± 1.6 MFI
VTNR (CD51/61); E5555 50 ng/ml, Patients (ASA)
  VTNR (CD51/61), Mean Fluorescence Intensity: 10.5 ± 1.3 MFI
VTNR (CD51/61); E5555 50 ng/ml, Volunteers
  VTNR (CD51/61), Mean Fluorescence Intensity: 10.1 ± 1.7 MFI
VTNR (CD51/61); [3]
  VTNR (CD51/61), Mean Fluorescence Intensity: 11.0 ± 2.0 MFI
VTNR (CD51/61); [4]
  VTNR (CD51/61), Mean Fluorescence Intensity: 9.9 ± 1.3 MFI
VTNR (CD51/61); E5555 100 ng/ml, Volunteers
  VTNR (CD51/61), Mean Fluorescence Intensity: 10.7 ± 1.5 MFI
PMA (CD14 + CD151); [5]
  Formation of platelet-monocyte aggregates, effect in words: significantly reduced
PMA (CD14 + CD151); [1]
  PMA (CD14 + CD151), Mean Fluorescence Intensity: 104 ± 16 MFI
PMA (CD14 + CD151); E5555 20 ng/ml, Patients (ASA)
  PMA (CD14 + CD151), Mean Fluorescence Intensity: 114 ± 18 MFI
PMA (CD14 + CD151); E5555 20 ng/ml, Volunteers
  PMA (CD14 + CD151), Mean Fluorescence Intensity: 130 ± 16 MFI
PMA (CD14 + CD151); [2]
  PMA (CD14 + CD151), Mean Fluorescence Intensity: 100 ± 27 MFI
PMA (CD14 + CD151); E5555 50 ng/ml, Patients (ASA)
  PMA (CD14 + CD151), Mean Fluorescence Intensity: 114 ± 19 MFI
PMA (CD14 + CD151); E5555 50 ng/ml, Volunteers
  PMA (CD14 + CD151), Mean Fluorescence Intensity: 128 ± 18 MFI
PMA (CD14 + CD151); [3]
  PMA (CD14 + CD151), Mean Fluorescence Intensity: 105 ± 21 MFI
PMA (CD14 + CD151); [4]
  PMA (CD14 + CD151), Mean Fluorescence Intensity: 107 ± 20 MFI
PMA (CD14 + CD151); E5555 100 ng/ml, Volunteers
  PMA (CD14 + CD151), Mean Fluorescence Intensity: 124 ± 23 MFI
platelets; E5555 20 ng/ml, CAD patients treated with ASA + clopidogrel
  Platelet Aggregation, Whole Blood Collagen 1 μg/mL: 13 ± 5 ohms
platelets; E5555 20 ng/ml, CAD patients treated with ASA
  Platelet Aggregation, Whole Blood Collagen 1 μg/mL: 11 ± 4 ohms
platelets; E5555 20 ng/ml, healthy volunteers
  Platelet Aggregation, Whole Blood Collagen 1 μg/mL: 22 ± 5 ohms
platelets; E5555 50 ng/ml, CAD patients treated with ASA + clopidogrel
  Platelet Aggregation, Whole Blood Collagen 1 μg/mL: 12 ± 7 ohms
platelets; E5555 50 ng/ml, CAD patients treated with ASA
  Platelet Aggregation, Whole Blood Collagen 1 μg/mL: 14 ± 6 ohms
platelets; E5555 50 ng/ml, healthy volunteers
  Platelet Aggregation, Whole Blood Collagen 1 μg/mL: 25 ± 7 ohms
platelets; E5555 100 ng/ml, CAD patients treated with ASA + clopidogrel
  Platelet Aggregation, Whole Blood Collagen 1 μg/mL: 14 ± 4 ohms
platelets; E5555 100 ng/ml, CAD patients treated with ASA
  Platelet Aggregation, Whole Blood Collagen 1 μg/mL: 12 ± 5 ohms
platelets; E5555 100 ng/ml, healthy volunteers
  Platelet Aggregation, Whole Blood Collagen 1 μg/mL: 22 ± 6 ohms
LAMP-1 (CD107a); [5]
  LAMP-1, effect in words: not affected
LAMP-1 (CD107a); [1]
  LAMP-1 (CD107a), Mean Fluorescence Intensity: 4.2 ± 1.6 MFI
LAMP-1 (CD107a); E5555 20 ng/ml, Patients (ASA)
  LAMP-1 (CD107a), Mean Fluorescence Intensity: 4.3 ± 1.2 MFI
LAMP-1 (CD107a); E5555 20 ng/ml, Volunteers
  LAMP-1 (CD107a), Mean Fluorescence Intensity: 4.7 ± 0.5 MFI
LAMP-1 (CD107a); [2]
  LAMP-1 (CD107a), Mean Fluorescence Intensity: 4.7 ± 1.3 MFI
LAMP-1 (CD107a); E5555 50 ng/ml, Patients (ASA)
  LAMP-1 (CD107a), Mean Fluorescence Intensity: 5.0 ± 1.7 MFI
LAMP-1 (CD107a); E5555 50 ng/ml, Volunteers
  LAMP-1 (CD107a), Mean Fluorescence Intensity: 4.6 ± 0.6 MFI
LAMP-1 (CD107a); [3]
  LAMP-1 (CD107a), Mean Fluorescence Intensity: 4.8 ± 1.4 MFI
LAMP-1 (CD107a); [4]
  LAMP-1 (CD107a), Mean Fluorescence Intensity: 4.3 ± 1.5 MFI
LAMP-1 (CD107a); E5555 100 ng/ml, Volunteers
  LAMP-1 (CD107a), Mean Fluorescence Intensity: 4.4 ± 1.0 MFI
GPIIb antigen (CD41); [1]
  GPIIb antigen (CD41), Mean Fluorescence Intensity: 328 ± 41 MFI
GPIIb antigen (CD41); E5555 20 ng/ml, Patients (ASA)
  GPIIb antigen (CD41), Mean Fluorescence Intensity: 471 ± 38 MFI
GPIIb antigen (CD41); E5555 20 ng/ml, Volunteers
  GPIIb antigen (CD41), Mean Fluorescence Intensity: 504 ± 18 MFI
GPIIb antigen (CD41); [2]
  GPIIb antigen (CD41), Mean Fluorescence Intensity: 209 ± 30 MFI
GPIIb antigen (CD41); E5555 50 ng/ml, Patients (ASA)
  GPIIb antigen (CD41), Mean Fluorescence Intensity: 376 ± 35 MFI
GPIIb antigen (CD41); E5555 50 ng/ml, Volunteers
  GPIIb antigen (CD41), Mean Fluorescence Intensity: 390 ± 31 MFI
GPIIb antigen (CD41); [3]
  GPIIb antigen (CD41), Mean Fluorescence Intensity: 176 ± 19 MFI
GPIIb antigen (CD41); [4]
  GPIIb antigen (CD41), Mean Fluorescence Intensity: 304 ± 40 MFI
GPIIb antigen (CD41); E5555 100 ng/ml, Volunteers
  GPIIb antigen (CD41), Mean Fluorescence Intensity: 364 ± 37 MFI
